According to patent US20250144067A1, “PERSONALIZED STARVATION THERAPY FOR CANCER” (Faeth Therapeutics, Inc., priority 2021, published 2025):
Counter-ions that a name gives are not always drawn.

Experiments:
[1] = tested on: NCI-H292 lung cancer cells; assay: FDA drug screening, complete media vs cholesterol-free media without statin (TABLE 1); type: cell-based, human
[2] = tested on: NCI-H292 lung cancer cells; assay: FDA drug screening, complete media vs cholesterol-free media with simvastatin (TABLE 2); type: cell-based, human; conditions: for Cholesterol-free media + simvastatin (0.04 μM) / Complete Media: NCI-H292 cells
[3] = Complete minus Cholesterol-free, >0 enhanced anti-cancer activity, about 0 neutral, <0 antagonist
[4] = NCI-H292 cells, cholesterol-free media without statin, FDA drug library screen
[5] = NCI-H292 cells, complete media, FDA drug library screen
[6] = cholesterol-free media with simvastatin 0.04 μM, cell growth value in FDA drug screen
[7] = complete media, cell growth value in FDA drug screen
[8] = complete media minus cholesterol-free media + simvastatin, >0 enhanced anti-cancer activity, about 0 neutral, <0 antagonist
[9] = Complete minus Cholesterol-free, greater than 0 enhanced anti-cancer activity, about 0 neutral, below 0 antagonists
[10] = NCI-H292 cells in cholesterol-free media without statin
[11] = NCI-H292 cells in complete media
[12] = NCI-H292 cells, cholesterol-free media without statin
[13] = FDA library drug in cholesterol-free media with simvastatin 0.04 μM
[14] = complete media vs cholesterol-free media + simvastatin (0.04 μM), >0 enhanced anti-cancer activity, about 0 neutral, <0 antagonist
[15] = cholesterol-free media with simvastatin 0.04 μM, FDA drug library screen (TABLE 2)
[16] = complete media, FDA drug library screen (TABLE 2)
[17] = complete media minus cholesterol-free media + simvastatin (0.04 μM), >0 enhanced anti-cancer activity, about 0 neutral, <0 antagonist
[18] = Complete minus Cholesterol-free, […]
[19] = NCI-H292 cells, FDA drug library screen, cholesterol-free media without statin
[20] = complete media minus cholesterol-free media + simvastatin (0.04 μM), […]
[21] = Complete minus Cholesterol-free, greater than 0 enhanced anti-cancer activity, about 0 neutral, below 0 antagonist
[22] = NCI-H292 cells, FDA drug library screen, complete media
[23] = FDA library drug in complete media
[24] = FDA drug library screen, cholesterol-free media with simvastatin 0.04 μM
[25] = FDA drug library screen, complete media
[26] = complete vs cholesterol-free media, […]
[27] = drug in cholesterol-free media with simvastatin 0.04 μM
[28] = complete media vs cholesterol-free media + simvastatin (0.04 μM), […]
[29] = complete vs cholesterol-free media, greater than 0 enhanced anti-cancer activity, about 0 neutral, below 0 antagonists

Compound: CCOC(=O)OC(C)OC1=C(C(=O)Nc2ccccn2)N(C)S(=O)(=O)c2ccccc21 (stereo not shown) [Ampiroxicam]
- Difference [1, 3]: −0.03
- Cholesterol-free [1, 4]: 0.9909
- Complete [1, 5]: 0.9596
- Cholesterol-free media + simvastatin (0.04 μM) [2, 6]: 1.311
- Complete Media [2, 7]: 1.382
- Difference [2, 8]: 0.07

Compound: O=C1Cc2cc(CCN3CCN(c4nsc5ccccc45)CC3)c(Cl)cc2N1 [Ziprasidone]
- Difference [1, 9]: −0.52
- Cholesterol-free [1, 10]: 1.408
- Complete [1, 11]: 0.89
- Cholesterol-free media + simvastatin (0.04 μM) [2, 6]: 0.9155
- Complete Media [2, 7]: 0.9832
- Difference [2, 8]: 0.07

Compound: Nc1nc2[nH]cc(CCc3ccc(C(=O)N[C@@H](CCC(=O)O)C(=O)O)cc3)c2c(=O)[nH]1 [Pemetrexed (disodium)]
- Difference [1, 3]: −0.19
- Cholesterol-free [1, 12]: 0.3169
- Complete ([1]; NCI-H292 cells, complete media): 0.1251
- Cholesterol-free media + simvastatin (0.04 μM) [2, 6]: 0.1199
- Complete Media [2, 7]: 0.1499
- Difference [2, 8]: 0.03

Compound: (S)-Flurbiprofen
- Difference [1, 9]: −0.56
- Cholesterol-free [1, 10]: 1.504
- Complete [1, 11]: 0.9454
- Cholesterol-free media + simvastatin (0.04 μM) [2, 13]: 1.832
- Difference [2, 14]: −0.79

Compound: CCCc1cc(=O)[nH]c(=S)[nH]1 [Propylthiouracil]
- Difference [1, 3]: −0.23
- Cholesterol-free [1, 12]: 1.082
- Complete ([1]; NCI-H292 cells, complete media): 0.8473
- Cholesterol-free media + simvastatin (0.04 μM) [2, 15]: 0.9529
- Complete Media [2, 16]: 0.939
- Difference [2, 17]: −0.01

Compound: Cc1c(C(=O)Nc2ccc(S(C)(=O)=O)cc2)cn(CCO)c1-c1ccccc1C(F)(F)F [Esaxerenone]
- Difference [1, 18]: −0.14
- Cholesterol-free [1, 19]: 1.29
- Cholesterol-free media + simvastatin (0.04 μM) [2, 15]: 0.9763
- Complete Media [2, 16]: 0.9118
- Difference [2, 20]: −0.06

Compound: Nc1nc(=O)c2c([nH]1)NC[C@@H](CNc1ccc(C(=O)N[C@@H](CCC(=O)O)C(=O)O)cc1)N2C=O [Folinic acid]
- Difference [1, 21]: −0.12
- Cholesterol-free [1, 19]: 1.105
- Complete [1, 22]: 0.9813
- Cholesterol-free media + simvastatin (0.04 μM) [2, 13]: 1.232
- Complete Media [2, 23]: 0.9515
- Difference [2, 14]: −0.28

Compound: Trimipramine (maleate)
- Difference [1, 9]: −0.51
- Cholesterol-free [1, 10]: 1.537
- Complete [1, 11]: 1.022
- Cholesterol-free media + simvastatin (0.04 μM) [2, 24]: 1.033
- Complete Media [2, 25]: 1.193
- Difference [2, 8]: 0.16

Compound: CCCCCCCC(=O)OCC(COC(=O)CCCCCCC)OC(=O)CCCCCCC [Tricaprilin]
- Difference [1, 3]: 0.03
- Cholesterol-free [1, 4]: 0.9476
- Complete [1, 5]: 0.9746
- Cholesterol-free media + simvastatin (0.04 μM) [2, 24]: 1.072
- Complete Media [2, 25]: 0.9486
- Difference [2, 14]: −0.12

Compound: Cc1cc(C)c(NC(=O)CN(CC(=O)O)CC(=O)O)c(C)c1Br [Mebrofenin]
- Difference [1, 21]: −0.13
- Cholesterol-free [1, 19]: 1.088
- Complete [1, 22]: 0.9614
- Cholesterol-free media + simvastatin (0.04 μM) [2, 13]: 1.2
- Complete Media [2, 23]: 0.8726
- Difference [2, 14]: −0.33

Compound: Cc1ncc(COP(=O)(O)O)c(C)c1O [4-Deoxypyridoxine 5′-phosphate]
- Cholesterol-free [1, 4]: 0.7389
- Difference [1, 26]: 0.41
- Cholesterol-free media + simvastatin (0.04 μM) [2, 27]: 1.284
- Complete Media ([2]; drug in complete media): 1.065
- Difference [2, 28]: −0.22

Compound: COC(=O)c1ccc2c(c1)NC(=O)/C2=C(\Nc1ccc(N(C)C(=O)CN2CCN(C)CC2)cc1)c1ccccc1 [Nintedanib]
- Difference [1, 21]: −0.17
- Cholesterol-free [1, 19]: 0.7067
- Complete [1, 22]: 0.5362
- Cholesterol-free media + simvastatin (0.04 μM) [2, 15]: 0.7141
- Complete Media [2, 16]: 0.7297
- Difference [2, 17]: 0.02

Compound: COC(=O)c1cc(OC)c2c(c1-c1c(C(=O)OC)cc(OC)c3c1OCO3)OCO2 [Bifendate]
- Cholesterol-free [1, 12]: 1.494
- Complete ([1]; NCI-H292 cells, complete media): 1.156
- Difference [1, 26]: −0.34
- Cholesterol-free media + simvastatin (0.04 μM) [2, 24]: 1.269
- Difference [2, 28]: −0.10

Compound: COC(=O)[C@H]1[C@H]2C[C@@H]3c4[nH]c5cc(OC)ccc5c4CCN3C[C@H]2C[C@@H](OC(=O)c2cc(OC)c(OC)c(OC)c2)[C@@H]1OC [Reserpine (hydrochloride)]
- Cholesterol-free [1, 12]: 1.178
- Complete ([1]; NCI-H292 cells, complete media): 0.8568
- Difference [1, 29]: −0.32
- Cholesterol-free media + simvastatin (0.04 μM) [2, 27]: 1.074
- Complete Media ([2]; drug in complete media): 0.834
- Difference [2, 14]: −0.24

Compound: Cc1coc2c1C(=O)C(=O)c1c-2ccc2c(C)cccc12 [Tanshinone I]
- Difference [1, 18]: −0.07
- Cholesterol-free [1, 19]: 0.8572
- Complete [1, 22]: 0.783
- Cholesterol-free media + simvastatin (0.04 μM) [2, 15]: 0.9012
- Complete Media [2, 16]: 0.8645
- Difference [2, 20]: −0.04

Compound: Oc1ccc(OCc2ccccc2)cc1 [Monobenzone]
- Difference [1, 9]: −0.87
- Cholesterol-free [1, 10]: 1.95
- Complete [1, 11]: 1.077
- Cholesterol-free media + simvastatin (0.04 μM) [2, 24]: 1.226
- Complete Media [2, 25]: 1.137
- Difference [2, 14]: −0.09

Compound: Chlorpheniramine (maleate)
- Difference [1, 9]: −0.51
- Cholesterol-free [1, 10]: 1.451
- Complete [1, 11]: 0.9428
- Cholesterol-free media + simvastatin (0.04 μM) [2, 15]: 1.426
- Complete Media [2, 16]: 1.414
- Difference [2, 17]: −0.01

Compound: Cc1c(OCC(F)(F)F)ccnc1C[S+]([O-])c1nc2ccccc2[nH]1 (stereo not shown) [Lansoprazole]
- Cholesterol-free [1, 12]: 1.34
- Complete ([1]; NCI-H292 cells, complete media): 0.9564
- Difference [1, 29]: −0.38
- Cholesterol-free media + simvastatin (0.04 μM) [2, 13]: 1.103
- Complete Media [2, 23]: 0.6471
- Difference [2, 14]: −0.46

Compound: C=CC[C@@H]1/C=C(\C)C[C@H](C)C[C@H](OC)[C@H]2O[C@@](O)(C(=O)C(=O)N3CCCC[C@H]3C(=O)O[C@H](/C(C)=C/[C@@H]3CC[C@@H](O)[C@H](OC)C3)[C@H](C)[C@@H](O)CC1=O)[C@H](C)C[C@@H]2OC [Tacrolimus (monohydrate)]
- Difference [1, 3]: −0.26
- Cholesterol-free [1, 12]: 1.012
- Complete ([1]; NCI-H292 cells, complete media): 0.7533
- Cholesterol-free media + simvastatin (0.04 μM) [2, 6]: 1.131
- Complete Media [2, 7]: 1.225
- Difference [2, 8]: 0.09

Compound: Nc1nc(NC2CC2)c2ncn([C@H]3C=C[C@@H](CO)C3)c2n1.Nc1nc(NC2CC2)c2ncn([C@H]3C=C[C@@H](CO)C3)c2n1.O=S(=O)(O)O [Abacavir (sulfate)]
- Difference [1, 3]: 0.06
- Cholesterol-free [1, 4]: 0.4233
- Complete [1, 5]: 0.4872
- Cholesterol-free media + simvastatin (0.04 μM) [2, 24]: 0.2456
- Complete Media [2, 25]: 0.4029
- Difference [2, 8]: 0.16

Compound: Salbutamol (hemisulfate)
- Difference [1, 21]: −0.13
- Cholesterol-free [1, 19]: 1.595
- Complete [1, 22]: 1.464
- Cholesterol-free media + simvastatin (0.04 μM) [2, 13]: 2.036
- Complete Media [2, 23]: 1.453
- Difference [2, 14]: −0.58

Compound: CC(C)Cc1ccc([C@H](C)C(=O)O)cc1 [(S)-(+)-Ibuprofen]
- Difference [1, 3]: −0.01
- Cholesterol-free [1, 4]: 1.011
- Complete [1, 5]: 0.9982
- Complete Media ([2]; drug in complete media): 0.9605
- Difference [2, 14]: −0.26

Compound: Nc1nc2c(ncn2CCC(CO)CO)c(=O)[nH]1 [Penciclovir]
- Cholesterol-free [1, 12]: 0.9605
- Complete ([1]; NCI-H292 cells, complete media): 0.6394
- Difference [1, 29]: −0.32
- Cholesterol-free media + simvastatin (0.04 μM) [2, 15]: 1.351
- Complete Media [2, 16]: 1.353
- Difference [2, 17]: 0.00
